Biological target: GST-MEK (p45MEK) and GST-MAPK (p44MAP kinase) (Homo sapiens, UniProt Q02750)
Assay: Cascade assay for inhibitors of the MAP kinase pathway (In Vitro)
Format: biochemical
Settings: incorporation of 32P into myelin basic protein
Description: Cascade Assay for Inhibitors of the MAP Kinase Pathway
Incorporation of ^32P into myelin basic protein (MBP) was assayed in the presence of a glutathione S-transferase fusion protein containing p44MAP kinase (GST-MAPK) and a glutathione S-transferase fusion protein containing p45MEK (GST-MEK). The assay solution contained 20 mM HEPES, pH 7.4, 10 mM MgCl2, 1 mM MnCl2, 1 mM EGTA, 50 μM [γ-^32P]ATP, 10 μg GST-MEK0.5 μg GST-MAPK and 40 μg MBP in a final volume of 100 μL. Reactions were stopped after 20 minutes by addition of trichloroacetic acid and filtered through a GF/C filter mat. ^32P retained on the filter mat was determined using a 1205 Betaplate. Compounds were assessed at 10 μM for ability to inhibit incorporation of ^32P.
To ascertain whether compounds were inhibiting GST-MEK or GST MAPK, two additional protocols were employed. In the first protocol, compounds were added to tubes containing GST-MEK, followed by addition of GST-MAPK, MBP and [γ-^32P]ATP. In the second protocol, compounds were added to tubes containing both GST-MEK and GST-MAPK, followed by MBP and [γ-^32P]ATP.

Chain of GST-MEK (p45MEK) and GST-MAPK (p44MAP kinase) (Q02750 whole entry): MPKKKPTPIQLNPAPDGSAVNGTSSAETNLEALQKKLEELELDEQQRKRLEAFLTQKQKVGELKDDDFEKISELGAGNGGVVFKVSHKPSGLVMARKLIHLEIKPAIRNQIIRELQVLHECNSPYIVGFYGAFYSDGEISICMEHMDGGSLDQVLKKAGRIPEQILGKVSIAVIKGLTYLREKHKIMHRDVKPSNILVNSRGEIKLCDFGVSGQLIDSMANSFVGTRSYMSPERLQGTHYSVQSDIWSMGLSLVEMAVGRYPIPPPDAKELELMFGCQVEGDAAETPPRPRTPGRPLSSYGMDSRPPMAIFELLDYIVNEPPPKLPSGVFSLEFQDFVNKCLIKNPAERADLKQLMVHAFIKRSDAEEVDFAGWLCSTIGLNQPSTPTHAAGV

Compound	IC50 [nM]
CCN(CC)C(=O)c1cc(Cl)ccc1Nc1ccc(I)cc1C [Example 47, 5-Chloro-N,N-diethyl-2-(4-iodo-2-methyl-phenylamino)-benzamide]	1911
Cc1cc(I)ccc1Nc1ccc(Cl)cc1C(=O)O [Example 6, 5-Chloro-2-(4-iodo-2-methyl-phenylamino)-benzoic acid]	71
Cc1cc(I)ccc1Nc1ccc(F)cc1C(=O)NOCc1ccccc1 [Example 186, N-Benzy1oxy-5-fluoro-2-(4-iodo-2-methyl-phenylamino)-benzamide]	555
Cc1cc(I)ccc1Nc1c(F)cc(C(=O)O)c(F)c1F [Example 22, 2,3,5-Trifluoro-4-(4-iodo-2-methyl-phenylamino)-benzoic acid]	1581
CCCNC(=O)c1ccc(F)cc1Nc1ccc(I)cc1C [Example 41, 4-Fluoro-2-(4-iodo-2-methyl-phenylamino)-N-propyl-benzamide]	872
Cc1cc(Br)ccc1Nc1cc(F)ccc1C(=O)O [Example 13, 2-(4-Bromo-2-methyl-phenylamino)-4-fluoro-benzoic acid]	178
Cc1cc(I)ccc1Nc1ccc(Br)cc1C(=O)NCCO [Example 42, 5-Bromo-N-(2-hydroxy-ethyl)-2-(4-iodo-2-methyl-phenylamino)-benzamide]	920
Cc1cc(I)ccc1Nc1ccc(Br)cc1C(=O)N1CCC(O)C1 (stereo not shown) [Example 100, [5-Bromo-2-(4-iodo-2-methyl-phenylamino)-phenyl]-(3-hydroxy-pyrrolidin-1-yl)-]	1994
Cc1c(Nc2cc(F)ccc2C(=O)O)ccc(I)c1Cl [Example 23, 4-Fluoro-2-(3-chloro-4-iodo-2-methyl-phenylamino) benzoic acid]	1588
O=C(O)c1cc([N+](=O)[O-])ccc1Nc1ccc(I)cc1Cl [Example 9, 2-(2-Chloro-4-iodo-phenylamino)-5-nitro-benzoic acid]	97
Cc1cc(I)ccc1Nc1ccc(Br)cc1C(=O)N(C)C [Example 48]	1945
O=C(O)c1cc(Br)c(F)c(F)c1Nc1ccc(I)cc1Cl [Example 220, 5-Bromo-2-(2-chloro-4-iodo-phenylamino)-3,4-difluoro-benzoic acid]	29
Cc1cc(I)ccc1Nc1ccc(Br)cc1C(=O)NCCO [Example 188, 5-Bromo-N-(2-hydroxy-ethyl)-2-(4-iodo-2-methyl-phenylamino)-benzamide]	771
Cc1cc(Br)ccc1Nc1c(C(=O)O)ccc(F)c1F [Example 15, 2-(4-Bromo-2-methyl-phenylamino)-3,4-difluoro-benzoic acid]	194
Cc1cc(I)ccc1Nc1ccc(Br)cc1CO [Example 52, [5-Bromo-2-(4-iodo-2-methyl-phenylamino)-phenyl]-methanol]	2346
Cc1cc(I)ccc1Nc1cc(F)ccc1C(=O)Nc1nnn[nH]1 [Example 37, 4-Fluoro-2-(4-iodo-2-methyl-phenylamino)-N-(1H-tetrazol-5-yl)-benzamide]	237
CCCCNC(=O)c1ccc(F)cc1Nc1ccc(I)cc1C [Example 46, N-Butyl-4-fluoro-2-(4-iodo-2-methyl-phenylamino)-benzamide]	1814
Cc1cc(I)ccc1Nc1ccc(I)cc1C(=O)O [Example 21, 5-Iodo-2-(4-iodo-2-methyl-phenylamino)-benzoic acid]	569
O=C(O)c1cc([N+](=O)[O-])ccc1Nc1ccc(I)cc1Br [Example 14, 2-(2-Bromo-4-iodo-phenylamino)-5-nitro-benzoic acid]	179
Cc1cc(I)ccc1Nc1ccc(Cl)cc1C(=O)NCCN1CCCC1 [Example 96, 5-Chloro-2-(4-iodo-2-methyl-phenylamino)-N-(2-pyrrolidin-1-yl-ethyl)-benzamide]	374
COc1cc(I)ccc1Nc1c(C(=O)O)ccc(F)c1F [Example 17, 3,4-Difluoro-2-(4-iodo-2-methoxy-phenylamino)-benzoic acid]	434
Cc1cc(I)ccc1Nc1c(C(=O)NCC(O)CO)ccc(F)c1F (stereo not shown) [Example 54, N-(2,3-Dihydroxy-propyl)-3,4-difluoro-2-(4-iodo-2-methyl-phenylamino)-benzamide]	158
CCN(CC)C(=O)c1cc([N+](=O)[O-])ccc1Nc1ccc(I)cc1C [Example 45, N,N-Diethyl-2-(4-iodo-2-methyl-phenylamino)-5-nitro-benzamide]	1755

Compound	IC50 [nM]
Cc1cc(I)ccc1Nc1ccc(F)cc1C(=O)N(C)c1ccccc1 [Example 194, 5-Fluoro-2-(4-iodo-2-methyl-phenylamino)-N-methyl-N-phenyl-benzamide]	4952
Cc1cc(I)ccc1Nc1cc(F)ccc1C(=O)NCC(O)CO (stereo not shown) [Example 57, N-(2,3-Dihydroxy-propyl)-4-fluoro-2-(4-iodo-2-methyl-phenylamino)-benzamide]	399
Cc1cc(I)ccc1Nc1ccc(Cl)cc1C(=O)N(C)c1ccccc1 [Example 190, 5-Chloro-2-(4-iodo-2-methyl-phenylamino)-N-methyl-N-phenyl-benzamide]	921
Cc1cc(I)ccc1Nc1cc(F)ccc1C(=O)O [Example 1, 4-Fluoro-2-(4-iodo-2-methylphenylamino)benzoic acid]	19
Cc1cc(I)ccc1Nc1c(F)cccc1C(=O)O [Example 16, 3-Fluoro-2-(4-iodo-2-methyl-phenylamino)-benzoic acid]	323
Cc1cc(I)ccc1Nc1ccc(Br)cc1C(=O)NCCCN1CCN(CCO)CC1 [Example 92, 5-Bromo-N-{3-[4-(2-hydroxy-ethyl)-piperazin-1-yl]-propyl}-2-(4-iodo-2-methyl-phenylamino)-benzamide]	253
Cc1cc(I)ccc1Nc1ccc(F)cc1C(=O)NCCCN1CCN(CCO)CC1 [Example 90, 5-Fluoro-N-{3-[4-(2-hydroxy-ethyl)-piperazin-1-yl]-propyl}-2-(4-iodo-2-methyl-phenylamino)-benzamide]	604
Cc1cc(I)ccc1Nc1cc(Cl)ccc1C(=O)O [Example 18, 4-Chloro-2-(4-iodo-2-methyl-phenylamino)-benzoic acid]	446
Cc1cc(I)ccc1Nc1ccc([N+](=O)[O-])cc1CO [Example 51, [2-(4-Iodo-2-methyl-phenylamino)-5-nitro-phenyl]-methanol]	887
Cc1cc(I)ccc1Nc1cccc(Cl)c1C(=O)O [Example 29, 2-Chloro-6-(4-iodo-2-methyl-phenylamino)-benzoic acid]	5331
Cc1cc(I)ccc1Nc1ccc([N+](=O)[O-])cc1C(=O)NC1CCCCC1 [Example 184, N-Cyclohexyl-2-(4-iodo-2-methyl-phenylamino)-5-nitro-benzamide]	278
Cc1cc(I)ccc1Nc1c(C(=O)O)cc(F)c(F)c1F [Example 2, 3,4,5-Trifluoro-2-(4-iodo-2-methyl-phenylamino)-benzoic acid]	14
O=C(O)c1cccc(Cl)c1Nc1ccc(I)cc1Cl [Example 25, 3-Chloro-2-(2-chloro-4-iodo-phenylamino)-benzoic acid]	2363
Cc1cc(I)ccc1Nc1ccc(Br)cc1C(=O)O [Example 8, 5-Bromo-2-(4-iodo-2-methyl-phenylamino)-benzoic acid]	86
Cc1cc(I)ccc1Nc1ccc(Cl)cc1C(=O)NCCO [Example 187, 5-Chloro-N-(2-hydroxy-ethyl)-2-(4-iodo-2-methyl-phenylamino)-benzamide]	561
Cc1cc(I)ccc1Nc1cc(F)ccc1C(N)=O [Example 33, 4-Fluoro-2-(4-iodo-2-methyl-phenylamino)-benzaniide]	52
Cc1cc(I)ccc1Nc1c(C(=O)O)ccc(F)c1F [Example 3, 3,4-Difluoro-2-(4-iodo-2-methyl-phenylamino)-benzoic acid]	11.1
Cc1cc(I)ccc1Nc1ccc(I)cc1C(=O)NCCO [Example 191, N-(2-Hydroxy-ethyl)-5-iodo-2-(4-iodo-2-methyl-phenylamino)-benzamide]	1355
Cc1cc(I)ccc1Nc1ccc([N+](=O)[O-])cc1C(=O)NCCO [Example 195, N-(2-Hydroxy-ethyl)-2-(4-iodo-2-methyl-phenylamino)-s-nitro-benzamide]	12800
O=C(O)c1cc([N+](=O)[O-])ccc1Nc1ccc(I)cc1F [Example 12, 2-(2-Fluoro-4-iodo-phenylamino)-5-nitro-benzoic acid]	135
Cc1cc(I)ccc1Nc1ccc([N+](=O)[O-])cc1C(=O)N(C)c1ccccc1 [Example 189, 2-(4-Iodo-2-methyl-phenylamino)-N-methyl-5-nitro-N-phenyl-benzamide]	859
Cc1cc(I)ccc1Nc1ccc(Br)cc1C(N)=O [Example 38, 5-Bromo-2-(4-iodo-2-methyl-phenylamino)-benzamide]	412
Cc1cc(I)ccc1Nc1cc(F)ccc1C(=O)NCCCN1CCN(CCO)CC1 [Example 44, 4-Fluoro-N-{3-[4-(2-hydroxy-ethyl)-piperazin-1-yl]-propyl}-2-(4-iodo-2-methyl-phenylamino)-benzamide]	1481
